Laboratory results taken from patent US20100003217A1, “Compounds and Pharmaceutical Compositions for the Treatment of Viral Infections” (priority 2008, published 2010).
Values joined by “and” are separate entries in the source; they are usually repeats but may differ in a detail not shown here. Identical values can stand only once.

Columns and labels:
[1] = Incubation with human liver cytosol; type: in vitro ADME; conditions: human cytosol 1 mg/mL, 2 hours, 10 μM
Protocol: (§1) Pooled liver cytosol (1.0 mg protein/mL) suspended in incubation buffer (0.1 M potassium phosphate, pH 7.4) was incubated for 2 hours at 37° C. with 10 μM Compound 1 from a stock solution in DMSO (final DMSO concentration was 0.1%); reaction was initiated with the addition of test article. Incubations with no protein served as control. Reactions were terminated by the addition of 0.1 mL of stop solution (acetonitrile). The samples were vortex-mixed for 30 sec and then centrifuged at 10,000×g for 10 min. The supernatant was dried using a Labconco CentriVap concentrator and the dry residue reconstituted in water, transferred to an HPLC glass vial and analyzed by HPLC-UV method 2 (described above).
(§2) Metabolic stability of the proposed metabolites was conducted by incubating the chemically synthesized standards Compound 2, Compound 4 and Compound 3 as described above for Compound 1. When possible, formation of Compound 5 was verified by incubating samples with alkaline phosphatase (10 U) for 60 min at 37° C.

[2] = Excretion of administered dose in rat urine and feces; type: in vivo, male Sprague-Dawley rats
Protocol: Isotopically diluted [^14C]-Compound 1 was administered intravenously to male Sprague-Dawley rats at 50 mg/kg or by oral gavage at 100 mg/kg.
Percent of the administered dose (% AD) for parent drug and each metabolite at each collection period=(% of the total radioactivity in the sample attributed to the metabolite)*(total radioactivity expressed as % of the administered dose, recovered during the corresponding collection period).
The urine and feces of each animal were analyzed for radiolabel content.

[3] = Incubation with rat liver cytosol; type: in vitro ADME; conditions: rat cytosol 1 mg/mL, 2 hours, 10 μM
Protocol: as §1, §2

[4] = system: human primary hepatocytes; experiment: Metabolic disposition of [^14C]-Compound 1 and [^14C]-2′-C-methyl guanosine in human primary hepatocytes (incubation medium, cellular extracts, nucleotide levels); type: in vitro ADME
In short: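 Rat, monkey or human primary hepatocytes on collagen I plates (1.6 million cells/mL) were incubated at 37° C with 1 or 10 μM C-8 [^14C]-labelled compound or 2′-C-methyl guanosine for 1, 4, 8 and 24 hours. Medium and 70% methanol cell extracts were analysed by LSC and radio-HPLC. Nucleotides were identified by alkaline phosphatase treatment and retention-time matching to standards.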

[5] = rat, Group 1A: IV 50 mg/kg, termination 2 h
[6] = rat, Group 1B: IV 50 mg/kg, termination 6 h
[7] = rat, Group 1C: IV 50 mg/kg, termination 24 h
[8] = rat, Group 2A: PO 100 mg/kg, termination 2 h
[9] = rat, Group 2B: PO 100 mg/kg, termination 6 h
[10] = rat, Group 2C: PO 100 mg/kg, termination 24 h

Which “Residual compound following incubation with liver cytosol” value [1] does the source give for `CC(C)(CO)C(=O)SCCOP(=O)(NCc1ccccc1)OC[C@H]1O[C@@H](n2cnc3c(=O)[nH]c(N)nc32)[C@](C)(O)[C@@H]1O` (mixture of isomers) [Compound 1, 3-hydroxy-2,2-dimethyl-thiopropionic acid S-(2-{[(2R,3R,4R,5R)-5-(2-amino-6-oxo-1,6-dihydro-purin-9-yl)-3,4-dihydroxy-4-methyl-tetrahydro-furan-2-ylmethoxy]-benzylamino-phosphoryloxy}-ethyl) ester] here?
The value was 100%.

And the “Total excretion (% AD), total (urine + feces)” value ([2]; IV (1C))?
Its value is 45.9 % AD.

What about the “Percent of Dose, Total (urine, feces and liver)” value ([2]; Oral, 24 h after [14C]Compound 1) of the same compound?
The value was 65.6% of Dose.

What about the “Total excretion (% AD), total (urine + feces)” value ([2]; PO (2C), urine data estimated) of the same compound?
Its value is 65.6 % AD.

And the “Total excretion (urine + feces), % of the administered dose” value ([2]; rat, IV dose)?
The value was 45.9%.

And the “radioactivity recovered in feces (% of dose)” value ([2]; rat, IV dose, 24 h)?
The value was 39%.

And the “radioactivity recovered in urine (% of dose)” value ([2]; rat, IV dose, 24 h)?
The value was 47%.

And the “Total excretion (urine + feces), % of the administered dose” value ([2]; rat, PO dose)?
Its value is 65.6%.

And the “Fecal Excretion (% AD)” value [2, 5]?
The value was 0.05 ± 0.08 % AD.

And the “Urinary + Fecal Excretion (% AD)” value [2, 5]?
The value was 26.0 ± 2.3 % AD.

And the “Urinary Excretion (% AD)” value [2, 5]?
Its value is 25.9 ± 2.4 % AD.

What about the “Fecal Excretion (% AD)” value [2, 6] of the same compound?
The value was 0.13 ± 012 % AD.

What about the “Urinary + Fecal Excretion (% AD)” value [2, 6] of the same compound?
The value was 27.8 ± 4.9 % AD.

And the “Urinary Excretion (% AD)” value [2, 6]?
The value was 27.7 ± 4.9 % AD.

And the “Fecal Excretion (% AD)” value [2, 7]?
Its value is 39.0 ± 4.0 % AD.

And the “Urinary + Fecal Excretion (% AD)” value [2, 7]?
The value was 86.0 ± 4.8 % AD.

What about the “Urinary Excretion (% AD)” value [2, 7] of the same compound?
Its value is 46.9 ± 4.1 % AD.

And the “Fecal Excretion (% AD)” value [2, 8]?
The value was 0.001 ± 0.001 % AD.

And the “Urinary + Fecal Excretion (% AD)” value [2, 8]?
The value was 0.05 ± 0.06 % AD.

And the “Urinary Excretion (% AD)” value [2, 8]?
The value was 0.05 ± 0.06 % AD.

And the “Fecal Excretion (% AD)” value [2, 9]?
Its value is 0.006 ± 0.005 % AD.

And the “Urinary + Fecal Excretion (% AD)” value [2, 9]?
Its value is 0.36 ± 0.18 % AD.

And the “Urinary Excretion (% AD)” value [2, 9]?
Its value is 0.36 ± 0.18 % AD.

What about the “Fecal Excretion (% AD)” value [2, 10] of the same compound?
The value was 91.3 ± 8.7 % AD.

What about the “Urinary + Fecal Excretion (% AD)” value [2, 10] of the same compound?
Its value is 94.1 ± 8.9 % AD.

What about the “Urinary Excretion (% AD)” value [2, 10] of the same compound?
Its value is 2.84 ± 0.82 % AD.

What about the “Residual compound following incubation with liver cytosol” value [3] of the same compound?
The value was 100%.

And the “metabolites observed in cellular extracts (% of total radioactivity)” value ([4]; human hepatocytes (Hu759, Hu775), 10 μM [^14C]-Compound 1, 1 h)?
Its value is 31.1% and 23.9%.

And the “metabolites observed in cellular extracts (% of total radioactivity)” value ([4]; human hepatocytes (Hu759, Hu775), 10 μM [^14C]-Compound 1, 4 h)?
The value was 8.48% and 6.96%.

What about the “metabolites observed in cellular extracts (% of total radioactivity)” value ([4]; human hepatocytes (Hu759, Hu775), 10 μM [^14C]-Compound 1, 24 h) of the same compound?
The value was 1.38% and 1.59%.

What about the “metabolites observed in cellular extracts (% of total radioactivity)” value ([4]; human hepatocytes (Hu775), 1 μM [^14C]-Compound 1, 1 h) of the same compound?
The value was 19.9%.

And the “metabolites observed in cellular extracts (% of total radioactivity)” value ([4]; human hepatocytes (Hu775), 1 μM [^14C]-Compound 1, 8 h)?
Its value is 4.07%.

What about the “metabolites observed in cellular extracts (% of total radioactivity)” value ([4]; human hepatocytes (Hu775), 1 μM [^14C]-Compound 1, 24 h) of the same compound?
The value was 2.78%.

What about the “decrease in Compound 1 medium levels” value ([4]; human hepatocytes, 10 μM, 24 hours) of the same compound?
Its value is 38%.

And the “% Residual [^14C]-Compound 1 in incubation medium” value (from here on “% Residual”) ([4]; human primary hepatocytes (n=1), 1 μM, 0 h)?
Its value is 97%.

And the “% Residual” value ([4]; human primary hepatocytes (n=1), 1 μM, 1 h)?
The value was 100%.

What about the “% Residual” value ([4]; human primary hepatocytes (n=1), 1 μM, 8 h) of the same compound?
Its value is 78%.

And the “% Residual” value ([4]; human primary hepatocytes (n=1), 1 μM, 24 h)?
Its value is 51%.

And the “% Residual” value ([4]; human primary hepatocytes (n=2), 10 μM, 0 h)?
The value was 97% and 98%.

And the “% Residual” value ([4]; human primary hepatocytes (n=2), 10 μM, 1 h)?
The value was 94% and 97%.

And the “% Residual” value ([4]; human primary hepatocytes (n=2), 10 μM, 4 h)?
Its value is 91%.

And the “% Residual” value ([4]; human primary hepatocytes (n=2), 10 μM, 8 h)?
Its value is 84% and 79%.

And the “% Residual” value ([4]; human primary hepatocytes (n=2), 10 μM, 24 h)?
The value was 63% and 60%.
